The values that follow come from patent US7875607B2, “7,8-bicycloakyl-chroman derivatives” (Ampere Life Sciences, Inc., priority 2004, dated 2011).

SMILES strings stand for the structures.

The subject of the first test is LTB4 production in heparinized whole blood. In words: Inhibition of LTB4 production in blood. The format is cell-based, rat or mouse. The following applies: 20 μM A23187, read-out: EC50, protection against LTB4. The method, then:
The blood was collected in heparinized tubes or syringes to prevent clotting. Heparin was at 20 USP U/ml. About 3-5 ml of blood was collected per rat and about 0.5-0.75 ml per mouse. This assay required 200 μl/data point, therefore a 96 well plate requires 20 ml.
The Calcium ionophore A23187 was prepared as a 10 mM stock solution in DMSO and the test agent is prepared in DMSO so that <1 μl DMSO will be added to the well
200 μl blood per well were added in a round bottom 96 well clear plastic 96 well plate followed by the test agent. After 10 minutes incubation at 37° C., 5 μl of Calcium ionophore A23187 for a final concentration of 20 μM were added and mixed, and further incubated for 30 min. After 1000×g centrifugation to pellet blood cells, 20 μl plasma was carefully removed.
20 μl plasma were added to 80 μl methanol to precipitate protein and mixed. This was further incubated 10 min. at room temperature and centrifuged at 1000×g to pellet protein.
Following manufacturer's instructions, the commercially available EIA kit was used to subsequently measure the LTB4 production in the samples. The LTB4 levels produced in the vehicle control sample were then compared to those in which the test compound had been added. From this a percent inhibition of LTB4 production by each concentration of test compound was calculated and the IC50 for inhibition of LTB4 production for each test compound was determined.
For the molecule `COP(=O)(CCCC1(C)CCc2cc(O)c3c(c2O1)C1CCC3C1)OC` (stereo not drawn) [[3-(6-Hydroxy-2-methyl-3,4,7,8,9,10-hexahydro-7,10-methano-2H-benzo[h]chromen-2-yl)-propyl]-phosphonic Acid Dimethyl Ester], the EC50 is not above 10000 nM.
`CCCC1=NN(C)C(=O)/C1=C\c1c(O)c2c(c3c1CCC(C)(C)O3)C1CCC2C1` (stereo not drawn) [4-(6-Hydroxy-2,2-dimethyl-3,4,7,8,9,10-hexahydro-7,10-methano-2H-benzo[h]chromen-5-ylmethylene)-2-methyl-5-propyl-2,4-dihydro-pyrazol-3-one]: the EC50 was not above 10000 nM.

For a further test, the target named is T1, human recombinant 5-lipoxygenase (Homo sapiens, UniProt P09917).
T1 construct: purchased Cayman 60402
T1 sequence (P09917 1-674): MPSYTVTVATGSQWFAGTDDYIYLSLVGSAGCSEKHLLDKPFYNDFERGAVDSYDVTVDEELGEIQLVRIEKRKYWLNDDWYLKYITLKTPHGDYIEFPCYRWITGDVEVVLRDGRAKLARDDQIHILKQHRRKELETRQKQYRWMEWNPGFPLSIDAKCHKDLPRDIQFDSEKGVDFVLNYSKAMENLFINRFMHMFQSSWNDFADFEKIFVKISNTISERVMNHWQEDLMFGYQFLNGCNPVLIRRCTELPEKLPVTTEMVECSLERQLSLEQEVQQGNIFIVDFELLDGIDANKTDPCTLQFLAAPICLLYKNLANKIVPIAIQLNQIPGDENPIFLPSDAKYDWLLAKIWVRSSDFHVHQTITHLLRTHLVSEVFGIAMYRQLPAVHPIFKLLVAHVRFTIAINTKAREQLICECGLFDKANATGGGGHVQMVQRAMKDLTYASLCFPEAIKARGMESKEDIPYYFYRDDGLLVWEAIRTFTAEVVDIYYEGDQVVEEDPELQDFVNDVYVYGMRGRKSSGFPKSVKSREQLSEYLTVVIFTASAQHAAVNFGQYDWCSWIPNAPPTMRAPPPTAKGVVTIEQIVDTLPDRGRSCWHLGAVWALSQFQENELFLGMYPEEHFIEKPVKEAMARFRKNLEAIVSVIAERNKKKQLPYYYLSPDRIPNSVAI
In words: 5-Lipoxygenase enzyme assay. The class given is biochemical. The following applies: 70 μM arachidonic acid, pH 7.4. As to the method:
This procedure was used for measuring the enzymatic activity of human recombinant 5-lipoxygenase using a […] method based on the ferric oxidation of xylenol orange.
Human recombinant 5-lipoxygenase (Cayman Cat # 60402) was used in this assay. The test compound and/or vehicle was added to 0.5U 5-lipoxygenase in 50 mM Tris-HCl buffer, pH 7.4. The reaction was initiated by addition of 70 μM arachidonic acid in Tris-HCl buffer, pH 7.4, and terminated after a 10 minute incubation at room temperature by addition of FOX reagent (25 mM sulphuric acid, 100 μM xylenol orange, 100 μM iron (II) sulphate, methanol:water 9:1). The yellow color of acidified xylenol orange was converted to a blue color by the lipid hydroperoxide-mediated oxidation of Fe^2+ ions and the interaction of the resulting Fe^3+ ions with the dye. The complex was allowed to form during a 1 hour incubation at room temperature with shaking. Absorbance of the Fe^3+ complex was then measured at […] using a spectrophotometer.
Negative controls contained enzyme during the incubation step but substrate was not added until after the FOX reagent.
Compounds were screened at 5 concentrations in triplicate starting at 10 μM
With `COC(=O)CCC1(C)CCc2cc(O)c3c(c2O1)C1CCC3CC1` (stereo not drawn) [3-(6-Hydroxy-2-methyl-3,4,7,8,9,10-hexahydro-7,10-ethano-2H-benzo[h]chromen-2-yl)-propionic acid methyl ester], the IC50 was not above 5000 nM.
Still for that read-out and setting: the value for `CC1(CCC(=O)OCc2ccccc2)CCc2cc(O)c3c(c2O1)C1CCC3CC1` (stereo not drawn) [3-(6-Hydroxy-2-methyl-3,4,7,8,9,10-hexahydro-7,10-ethano-2H-benzo[h]chromen-2-yl)-propionic acid benzyl ester] was not above 5000 nM; that for `COC(=O)CCC1(C)CCc2cc(O)c3c(c2O1)C1CCCC3CC1` (stereo not drawn) [3-(6-Hydroxy-2-methyl-3,4,7,8,9,10-hexahydro-7,10-propano-2H-benzo[h]chromen-2-yl)-propionic Acid Methyl Ester] was not above 5000 nM.
Regarding `COC12CCC(CC1)c1c(O)cc3c(c12)OC(C)(C)CC3` [10-Methoxy-2,2-dimethyl-3,4,7,8,9,10-hexahydro-7,10-ethano-2H-benzo[h]chromen-6-ol], the half-maximal inhibitory concentration (IC50) was not above 5000 nM.

The test system of another test is dopaminergic neuronal cell line. In words: High glutamate-induced oxidative stress assay (HGOS). The format is cell-based. The settings on record: Mus musculus; 30 mM glutamate, 16 hrs; read-out: EC50, protection against HGOS cell injury and cell death. An excerpt:
Protection against redox stress can be further evaluated in cell culture using high glutamate induced oxidative stress (HGOS) in mouse dopaminergic cell lines. The cytotoxic effect of glutamate is not due to excitotoxicity, as this cell line is devoid of inotropic glutamate receptors. Rather, the glutamate-induced toxicity of dopaminergic cells is associated with an inhibition of cystine transport which subsequently leads to depletion of intracellular glutathione (GSH) levels (Murphy T. H., et al. Neuron 2, 1547-1558, 1989), activation of neuronal 12-lipoxygenase (Li, Y. et al., Neuron 19, 453-463, 1997), increased ROS production (Tan S. et al., J. Cell Biol. 141, 1423-1432, 1998) and elevated intracellular Ca^2+ (Li, Y. et al., see supra). Some molecules were measured for their ability to protect cells against glutamate-induced stress and the assay is detailed in Examples.
This procedure was used to induce high glutamate-induced oxidative stress (HGOS) in a dopaminergic neuronal cell line. Using this assay the potency and efficacy of test articles against HGOS neuronal cell injury and cell death was established in a high throughput manner.
The cells were seeded into 96-well plates at a density of 2000 per well and left to grow for 72 hours in a 33° C. incubator with 5% CO2 in air atmosphere. The passage number of the cells for each assay experiment were no later than p11 in order to minimize experimental variation.
All compounds were dissolved in DMEM-No Glu containing 1 mM glucose, 30 mM glutamate and 1×Pen/Strep. DMEM-No Glu with 1 mM glucose and 1×P/S was used as the negative control, DMEM-No Glucose with 1 mM glucose, […] was used as a positive control and 100 μM Glutathione was added to the positive control as a standard. All of the procedures for this involving the making and dilution of compounds were performed using aseptic conditions and with minimal light.
The plates were removed from the incubator and examined under the microscope for morphological appearance and density. Using an aseptic technique and an 8-channel aspirator the media was carefully removed from the cells and replaced with 200 μl of 1×HBSS. This was done as quickly as possible to prevent the cells drying out. The plates were then placed in the humidified 37° C. incubators of the Biomek 2000 Side Loader. Four plates were washed at a time so as to minimize the time that the cells were sitting in 1×HBSS prior to addition of the compound test solution.
The Beckman Biomek workstations were used to load the compounds and controls from the mother plates onto the cell plates that were prewashed with HBSS under sterile conditions. The plates were incubated in the upper HTS incubator at 37° C. in 5% CO2 for exactly 16 hrs. The following day, using the Beckman Biomek workstations, the plates were removed from the incubator. Using Cell Tracker Addition, the compounds were removed from the plates, washed once with […] of pre-warmed 1×HBSS and then 100 μL of 5 μM Cell Tracker Green was added to each well. The plates were incubated at 37° C. for 30 min to allow the dye to enter the cell and be cleaved by the esterases. After washing the cells twice with prewarmed 1×HBSS, the plates were read with the 485 excitation; 538 emission filter pair on a Fluoroskan.
Turning to `CC(C)=CCc1c(O)c2c(c3c1C=CC(C)(C)O3)C1CCC2C1` (stereo not drawn) [2,2-Dimethyl-5-(3-methyl-but-2-enyl)-7,8,9,10-tetrahydro-7,10-methano-2H-benzo[h]chromen-6-ol], the EC50 is not above 1000 nM.
`CC(C)=CCc1c(O)c2c(c3c1CCC(C)(C)O3)C1CCC2CC1` [2,2-Dimethyl-5-(3-methyl-but-2-enyl)-3,4,7,8,9,10-hexahydro-7,10-ethano-2H-benzo[h]chromen-6-ol]: the 50% effective concentration (EC50) was not above 1000 nM.
Turning to `CC1(C)CCc2c(CC=C3CCCCC3)c(O)c3c(c2O1)C1CCC3CC1` [5-(2-Cyclohexylidene-ethyl)-2,2-dimethyl-3,4,7,8,9,10-hexahydro-7,10-ethano-2H-benzo[h]chromen-6-ol], the half-maximal effective concentration (EC50) is not above 1000 nM.
On to `CC(=O)Oc1c(CC=C(C)C)c2c(c3c1C1CCC3C1)OC(C)(C)C=C2` (stereo not drawn) [Acetic acid 2,2-dimethyl-5-(3-methyl-but-2-enyl)-7,8,9,10-tetrahydro-7,10-methano-2H-benzo[h]chromen-6-yl ester], for which the EC50 was not above 1000 nM.
For `COC(=O)CCC1(C)CCc2cc(O)c3c(c2O1)C1CCCC3CC1` (stereo not drawn) [3-(6-Hydroxy-2-methyl-3,4,7,8,9,10-hexahydro-7,10-propano-2H-benzo[h]chromen-2-yl)-propionic Acid Methyl Ester], the EC50 is not above 1000 nM.
The same measure, in the same setting: the value for `CC1(CCCSc2nc3ccccc3s2)CCc2cc(O)c3c(c2O1)C1CCC3CC1` (stereo not drawn) [2-[3-(Benzothiazol-2-ylsulfanyl)-propyl]-2-methyl-3,4,7,8,9,10-hexahydro-7,10-ethano-2H-benzo[h]chromen-6-ol] was not above 1000 nM; that for `CC1(C)CCc2c(CO)c(O)c3c(c2O1)C1CCC3C1` (stereo not drawn) [5-Hydroxymethyl-2,2-dimethyl-3,4,7,8,9,10-hexahydro-7,10-methano-2H-benzo[h]chromen-6-ol] was not above 1000 nM; that for `CC1=NN(c2ccc(C(=O)O)cc2)C(=O)C1=Cc1c(O)c2c(c3c1CCC(C)(C)O3)C1CCC2C1` (stereo not drawn) [4-[4-(6-Hydroxy-2,2-dimethyl-3,4,7,8,9,10-hexahydro-7,10-methano-2H-benzo[h]chromen-5-ylmethylene)-3-methyl-5-oxo-4,5-dihydro-pyrazol-1-yl]-benzoic acid] was not above 1000 nM.
For `CC(=O)Oc1c(CCC(C)C)c2c(c3c1C1CCC3C1)OC(C)(C)CC2` (stereo not drawn) [Acetic acid 2,2-dimethyl-5-(3-methyl-butyl)-3,4,7,8,9,10-hexahydro-7,10-methano-2H-benzo[h]chromen-6-yl ester], the concentration giving a half-maximal response (EC50) was not above 1000 nM.
On the same count and under the same terms, the same measure for `CC1(C)CCc2c(C=C3C(=O)Oc4ccc(O)cc43)c(O)c3c(c2O1)C1CCC3C1` (stereo not drawn) [5-Hydroxy-3-(6-hydroxy-2,2-dimethyl-3,4,7,8,9,10-hexahydro-7,10-methano-2H-benzo[h]chromen-5-ylmethylene)-3H-benzofuran-2-one]: not above 1000 nM.
On the same count and under the same terms, the same measure for `CCCC1=NN(C)C(=O)/C1=C\c1c(O)c2c(c3c1CCC(C)(C)O3)C1CCC2C1` (stereo not drawn) [4-(6-Hydroxy-2,2-dimethyl-3,4,7,8,9,10-hexahydro-7,10-methano-2H-benzo[h]chromen-5-ylmethylene)-2-methyl-5-propyl-2,4-dihydro-pyrazol-3-one]: not above 1000 nM.

Another test has as its system LTB4 release from MPRO cell line. In words: LTB4-cell assay. The following applies: Mus musculus; differentiated MPRO cells, 1 μM A23187, 1 hour; read-out: EC50, inhibition of LTB4. The class given is cell-based. As to the method:
This procedure was used for measuring the release of the leukotriene LTB4 from a neutrophil cell line using a competitive ELISA technique.
A mouse promyelocytic cell line (MPRO) was used in this assay. These cells are committed immature neutrophils that can be differentiated into mature neutrophils by treatment with 10 μM all-trans retinoic acid for 72 hours
Following 72 hours of differentiation, cells were stimulated with 1 μM of a calcium ionophore (A23187) in the presence or absence of test compound or vehicle for 1 hour at 37° C. After this time, supernatant was removed from the cells and the LTB4 levels were determined following manufacturer's instructions, using a Leukotriene B4 EIA kit from Cayman (Cat # 520111)
The negative controls were media samples from differentiated but unstimulated cells.
The compounds were screened at 5 concentrations in quadruplicate starting at 10 μM
Consider `CN(C)CC(=O)Oc1cc2c(c3c1C1CCC3CC1)OC(C)(C)CC2` [Dimethylamino-acetic acid 2,2-dimethyl-3,4,7,8,9,10-hexahydro-7,10-ethano-2H-benzo[h]chromen-6-yl ester], for which the EC50 was not above 5000 nM.
